For series [1] the following is noted: ref Anderson et al., 2011; cited from earlier work.
For the next series, the system named is Chk2. The note with it: ref Jobson et al., cited from earlier work.
The target of the next series is recombinant human Chk2 (Homo sapiens, UniProt O96017). In words: IMAP fluorescence polarization kinase inhibition assay, Chk2. The following applies: read-out: IC50 Chk2 Mean ±SD (n=3–4), 60 minutes at room temperature. The class given is biochemical. (In fluorescence polarisation assays a small probe gives low polarisation when free and higher when bound to something large.)

The next series concerns the target RSK2 (Homo sapiens, UniProt P51812). In words: IMAP fluorescence polarization kinase inhibition assay, RSK2. Format: biochemical. The note with it: for IC50: read-out: IC50 RSK2, IMAP assay, 60 minutes at room temperature.
For a further series, the target named is T1, Chk1 (Homo sapiens, UniProt O14757).
T1 sequence (O14757 1-476): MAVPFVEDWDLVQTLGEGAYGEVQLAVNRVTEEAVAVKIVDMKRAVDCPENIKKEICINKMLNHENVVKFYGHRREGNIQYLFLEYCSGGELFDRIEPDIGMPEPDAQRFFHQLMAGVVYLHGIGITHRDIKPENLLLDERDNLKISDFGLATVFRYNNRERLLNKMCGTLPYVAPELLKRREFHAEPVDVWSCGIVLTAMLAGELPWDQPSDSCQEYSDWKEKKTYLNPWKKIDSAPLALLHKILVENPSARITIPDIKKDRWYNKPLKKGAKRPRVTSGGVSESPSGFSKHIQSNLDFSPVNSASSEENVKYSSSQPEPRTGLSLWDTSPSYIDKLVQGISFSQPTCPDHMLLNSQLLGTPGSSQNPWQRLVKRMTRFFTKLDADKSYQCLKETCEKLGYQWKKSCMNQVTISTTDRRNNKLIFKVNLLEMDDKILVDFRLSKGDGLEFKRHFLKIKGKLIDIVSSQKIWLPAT
Briefly: IMAP fluorescence polarization kinase inhibition assay, Chk1. The class given is biochemical. The note with it: for IC50: read-out: IC50 Chk1, IMAP assay, 60 minutes at room temperature.

Where [2] appears, read: positive control on each screening plate.

As a reminder, the IC50 is the midpoint of a concentration-inhibition curve.

Sequence of RSK2 (P51812 68-327 limits assumed): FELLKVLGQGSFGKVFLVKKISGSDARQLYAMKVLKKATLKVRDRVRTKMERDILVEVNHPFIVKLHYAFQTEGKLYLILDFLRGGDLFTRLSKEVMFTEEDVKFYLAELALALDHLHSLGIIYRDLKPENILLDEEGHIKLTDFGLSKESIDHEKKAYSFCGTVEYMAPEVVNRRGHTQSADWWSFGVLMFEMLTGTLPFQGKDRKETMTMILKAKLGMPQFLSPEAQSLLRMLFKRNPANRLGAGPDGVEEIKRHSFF
Sequence of recombinant human Chk2 (O96017 whole entry): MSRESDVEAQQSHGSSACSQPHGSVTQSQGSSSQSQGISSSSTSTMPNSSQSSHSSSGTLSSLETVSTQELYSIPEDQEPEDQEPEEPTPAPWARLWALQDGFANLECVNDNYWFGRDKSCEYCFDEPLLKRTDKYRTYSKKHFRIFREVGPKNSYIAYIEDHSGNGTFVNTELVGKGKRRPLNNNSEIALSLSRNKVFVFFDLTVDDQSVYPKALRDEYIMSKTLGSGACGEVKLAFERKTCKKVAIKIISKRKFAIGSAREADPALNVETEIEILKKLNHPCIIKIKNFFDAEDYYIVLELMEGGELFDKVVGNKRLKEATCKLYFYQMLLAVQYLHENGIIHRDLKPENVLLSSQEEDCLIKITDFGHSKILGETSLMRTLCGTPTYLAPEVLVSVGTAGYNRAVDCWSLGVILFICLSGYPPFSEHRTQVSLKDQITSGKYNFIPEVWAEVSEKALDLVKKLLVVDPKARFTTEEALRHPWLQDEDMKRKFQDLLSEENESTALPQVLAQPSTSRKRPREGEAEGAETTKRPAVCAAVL

With `COc1cc2nc(-c3cc(F)ccc3O)nc(N[C@@H]3CNC[C@H]3C(C)(C)O)c2cc1OC` [CCT241533], the “Potentiation of cytotoxicity of PARP inhibitors” value in series [1] is “potentiate the cytotoxicity of PARP inhibitors”.
Consider `CC(=NNC(=N)N)c1ccc(NC(=O)Nc2ccc(C(C)=NNC(=N)N)cc2)cc1` [NSC 109555, 4,4'-Diacetyldiphenylurea-bis(guanylhydrazone)], for which the “Activity in cellular assays” value in the series with Chk2 (2007) is “inactive”.
With `OCC=CCO` [PV976], the IC50 at recombinant human Chk2 is 69.6 ± 40.2 nM; on RSK2, more than 100 µM; on Chk1 it was more than 100 µM.
`CC(=NNC(=N)N)c1ccc(NC(=O)c2cc3cccc([N+](=O)[O-])c3[nH]2)cc1` [PV1019, 7-nitro-1H-indole-2-carboxylic acid {4-[1-(guanidinohydrazone)-ethyl]-phenyl}-amide]: the “Activity in cells against Chk2” value in the series on Chk2 (2009) is listed as “active”.
With `C/C(=N\NC1=NCCN1)c1ccc(NC(=O)c2cc3cccc([N+](=O)[O-])c3[nH]2)cc1` [PV1115], the half-inhibitory concentration (IC50) at RSK2 is more than 100 µM; on Chk1, 66 µM.
Turning to `N/C(=N/N=C/c1cccnc1)N[N+](=O)[O-]` [PV1531], the IC50 is 0.03 ± 0.03 nM on recombinant human Chk2, more than 100 µM at RSK2 and 86 µM at Chk1.
Consider `CN[C@@H]1C[C@H]2O[C@@](C)([C@@H]1OC)n1c3ccccc3c3c4c(c5c6ccccc6n2c5c31)C(=O)NC4` [staurosporine, reference compound], for which the “Inhibition of RSK2 (positive control)” value on RSK2 (setting [2]) is reported as “inhibits”. Moreover, at Chk1 (setting [2]), the “Inhibition of Chk1 (positive control)” value is reported as “inhibits”.

Source of the values: article PMC3210331 (Journal of structural biology, 2011).
